Laboratory results reported in patent US20150118229A1, “JAK1 SELECTIVE INHIBITOR AND USES THEREOF” (ABBVIE INC., priority 2013, published 2015).

Legend:
[1] = system: peripheral NK cell counts; experiment: Peripheral NK cell counts in healthy rats; format: in vivo, rat; conditions: rat
Description: The correlation of this effect with ex vivo cytokine signaling inhibition is shown in the right panel of FIG. 6. These measurements correlated well, confirming the Jak dependency of the NK cell count endpoint.
To establish the relationship between changes in NK cell counts and nonclinical efficacy, the changes in NK cell counts were compared with decreases in rat AIA disease activity per unit exposure.

[2] = system: adjuvant-induced arthritis (paw swelling, bone erosion); experiment: Adjuvant-induced arthritis (AIA) in Lewis rats; format: in vivo
Procedure: The inflammation appears in the contra-lateral (left) hind paw seven days after the initial immunization. […] Rats are lightly anesthetized with an inhalant anesthetic (isoflurane) and the contra-lateral (left) hind paw is dipped into the plethysmograph and the paw volume is recorded. The rats are scored every other day up to day 17 after immunization. […] Bone volume and density is determined for a 360 μm (200 slice) vertical section encompassing the tarsal section of the paw. […] Drug exposure is determined in the plasma using LC/MS.

## C[C@@H]1CCN(C(=O)CC#N)C[C@@H]1N(C)c1ncnc2[nH]ccc12 [Tofacitinib, reference compound]
[1]
  NK Counts (exposure): 391 ng·h/mL
  NK cell count decrease at about 60% efficacy (inhibition of paw swelling): about 80%
[2]; AIA rats, about 60% inhibition of paw swelling
  efficacious exposure (AUC60), PK/PD modeling: ~300 ng·h/mL
[2]; oral bid, last day of study
  AUC60 (60% inhibition of paw swelling), total AUC0-12: 392 ± 121 ng·h/mL
  AUC60, fraction unbound AUC0-12: 300 ± 98 ng·h/mL
[2]; rat AIA
  Paw Swelling (exposure): 514 ng·h/mL
[2]; rat AIA vs reticulocyte deployment
  inhibition of Paw Swelling reached at about the same level of reticulocyte inhibition: about 60%
